In patent US4552882A, “7-(1-Pyrrolyl) derivatives of 1-ethyl-1,4-dihydro-4-oxoquinoline-3-carboxylic acids and 1-ethyl-1,4-dihydro-4-oxo-1,8-naphthyridine-3-carboxylic acids and their use as antimicrobial agents” (Provesan, SA, priority 1983, dated 1985) one finds MIC data, which are given here for five compounds.

What all share (assay): MIC in vitro
Test [1] has as its system Bacillus subtilis ATCC 6633. The class given is cell-based. The note with it: ATCC6633, Dextrose agar, 37° C., 20 hours. The method, then:
(§1) (G. L. Daquet and Y. A. Chabbect, Techniques en bacteriologie (Bacteriological techniques), vol. 3, Flammarion Medecine Sciences, Paris, 1972 and W. B. Hugo and A. D. Rusell, Pharmaceutical Microbiology, Blackwell Scientific Publications, London, (1977)). Antibiotic medium no. 1 (seed agar) (Oxoid CM 327) Tryptone-soya broth (Oxoid CM 129) Ringer's physiological solution 1/4 (oxoid BR 52) Dextrose agar (BBL-11165) 0.1 N NaOH "Bacillus subtilis" ATCC 6633 Each of the microorganisms is seeded by streaking in tubes of Antibiotic medium No. 1 (seed agar), which are then incubated at 37° C. for 20 hours. Using a culture loop, the cultures are then seeded in tryptone-soyabroth and incubated at 37° C. for 20 hours. The culture obtained is diluted to 1/4 with Ringer's physiological solution, so as to obtain a standardized suspension of 10^7 -10^9 cfu/ml for each organism. Starting from a solution of 1,000 μg/ml in 0.1 N NaOH, each product is diluted in Dextrose agar (previously melted and maintained at 50° C.), with successive dilutions so as to obtain the following concentrations: 64--32--16--8--4--2--1--0.5--0.25--0.125 μg of derivative/ml medium. For each product, the solution of each concentration is subsequently distributed into Petri dishes 10 cm in diameter, with 10 ml of medium per dish and the same number of dishes as microorganisms to be tested. As soon as the medium has cooled, the dishes are seeded with the inoculations using 0.4 ml of inoculation per dish. They are spread with a Driglasky loop and the supernatant is removed. The seeded dishes are incubated at 37° C. for 20 hours.

Test [2] deals with Pseudomonas aeroginosa ADSA 47. It is filed as cell-based, Pseudomonas aeruginosa. Particulars: ADSA47, Dextrose agar, 37° C., 20 hours. The protocol:
as §1, with “"Pseudomonas aeruginosa" ADSA 47” for “"Bacillus subtilis" ATCC 6633”

Test [3] has as its system Staphylococcus aureus ATCC 5488/23. It is filed as cell-based. The note with it: ATCC5488, Dextrose agar, 37° C., 20 hours.
Excerpt: as §1, with “"Staphylococcus aureus"” for “"Bacillus subtilis"”, “5488/23” for “6633”

Each structure is given as a SMILES string. Converted amounts (≈) assume the structure as drawn.

`CCn1cc(C(=O)O)c(=O)c2cnc(N3CCNCC3)nc21` [Pipemidic acid, reference compound]: the minimal inhibitory concentration (MIC) (as a rule, the least concentration at which growth counts as inhibited) turned out to be 8 µg/mL (≈ 26.4 µM) in test [1], 32 µg/mL (≈ 105 µM) in test [2] and 64 µg/mL (≈ 211 µM) in test [3].

With `CCn1cc(C(=O)O)c(=O)c2ccc(-n3cccc3)nc21` [Example 3, 1-ethyl-1,4-dihydro-4-oxo-7-(1-pyrrolyl)-1,8-naphthyridine-3-carboxylic acid], the MIC is 0.25 µg/mL (≈ 0.882 µM) in test [1], more than 64 µg/mL in test [2] and 8 µg/mL (≈ 28.2 µM) in test [3].

Consider `CCn1cc(C(=O)O)c(=O)c2ccc(-n3cccc3)cc21` [Example 1, 7-(1-pyrrolyl)-1-ethyl-1,4-dihydro-4-oxo-3-quinolinecarboxylic acid], for which the MIC in test [1] was less than 0.125 µg/mL; in test [2], more than 64 µg/mL; in test [3] it was 1 µg/mL (≈ 3.54 µM).

As to `CCn1cc(C(=O)O)c(=O)c2cc(F)c(-n3cccc3)nc21` [Example 4, 1-ethyl-1,4-dihydro-4-oxo-6-fluoro-7-(1-pyrrolyl)-1,8-naphthyridine-3-carboxylic acid], the MIC is 0.03 µg/mL (≈ 0.0996 µM) in test [1], more than 64 µg/mL in test [2] and 0.5 µg/mL (≈ 1.66 µM) in test [3].

On to `CCn1cc(C(=O)O)c(=O)c2cc(F)c(-n3cccc3)cc21` [Example 2, 6-fluoro-7-(1-pyrrolyl)-1-ethyl-1,4-dihydro-4-oxo-3-quinolinecarboxylic acid], for which the MIC was less than 0.125 µg/mL in test [1], 64 µg/mL (≈ 213 µM) in test [2] and 0.25 µg/mL (≈ 0.833 µM) in test [3].
